Where a name gives a salt, the structure may show the parent alone.
Columns and labels:
NK1 receptor [1] = biological target: T1, NK1 receptor (Homo sapiens, UniProt P25103); experiment: Antagonism of NK1 receptor mediated (SP-induced) phosphatidylinositol turnover in UC11 cells; assay type: cell-based; conditions: for relative antagonism of NK1 and NK2 receptors (in words): PI turnover, UC11 (NK1) versus SKLKB82#3 (NK2) cells
T1 construct: antagonizes both NK1 (on UC11 cells); endogenous in cells; host or cells: UC11 cells
Description: (§1) Tachykinin-mediated inositol phosphate accumulation was measured in UC11 or SKLKB82#3 cells in the presence and absence of NK1 or NK2 receptor antagonists, respectively. Tissues were incubated in Krebs-Henseleit buffer at 37° C. with 95% O2 -5% CO2 gassing. Tissues were then incubated with fresh buffer containing 100 μCi of myo-[2-3H(N)] inositol at 37° C. for 60 min with gentle gassing. After washing twice in 5 ml room temperature buffer containing 10 mM LiCl, tissues were incubated for 30 min at room temperature with a buffer change at 15 min. Buffer was removed and Krebs-Henseleit buffer (containing 40 μg/ml bacitracin, 4 μg/ml each of leupeptin and chymostatin, 0.1% bovine serum albumin and 10 mM each of thiorphan and LiCl) added. After 15 min, SP was added to UC11 cells or NKA to SKLKB82#3 cells at various concentrations to start the reaction. After incubation for 60 min at room temperature the reaction was terminated by addition of 930 μl chloroform: methanol (1:2 by volume) to each tube, followed by 310 μl chloroform and 310 μl doubly distilled water. Samples were vortexed, centrifuged, and 0.9 ml of the aqueous (top) phase removed and added to 2 ml ddH2 O. The mixture was vortexed and loaded onto a 50% Bio-Rad AG 1-X8 (formate form, 100-200 mesh) exchange column (Bio-Rad Laboratories, Hercules, Calif.). The columns were washed, in order, with: 1) 10 ml doubly distilled water, 2) 5 ml of 5 mM disodium tetraborate/60 mM sodium formate, and 3) 5 ml of 1M ammonium formate/0.1M formic acid. The third elution was collected and 1 ml counted in 7 ml scintillation fluid. A 50 μl aliquot of the organic (bottom) phase was removed, dried in a scintillation vial and counted in 7 ml scintillation fluid.
(§2) The ratio of DPM in the aqueous phase aliquot (total inositol phosphates) to the DPM in the 50 μl organic phase aliquot (total [^3 H]inositol incorporated) was calculated for each sample. Data are expressed as a percent of agonist-induced accumulation of [^3 H]-inositol phosphates over basal levels. The ratios in the presence of test compound and/or standards were compared to the ratios for control samples (i.e. no stimulating agonist). Dose-response graphs were constructed and the abilities of the test compounds to inhibit tachykinin-induced phosphatidyinositol turnover determined with the aid of a computer program. […] Data is expressed as percent stimulation of total inositol phosphate accumulation over basal levels and normalized to the maximum response produced by SP. […] Schild analysis is performed using dose response curves (such as those presented in FIGS. 1a and 1b) to obtain a value indicative of the strength of a competitive antagonist and is expressed as the pA2, which is the negative logarithm of the molar concentration of antagonist which reduces the effect of a dose of agonist to one-half of that expected at the dose of agonist.

NK1 and NK2 receptors = experiment: Modulation of respiratory effects produced by capsaicin aerosol in conscious guinea pigs; assay type: in vivo, guinea pig
Description: (§3) In vivo experiments were performed using male Duncan Hartley guinea pigs (250-350g). Changes in conscious breathing patterns were monitored in four animals simultaneously using modified whole body plethysmography consisting of four small plexiglass boxes each connected to a reference box via Validyne DP 45-16 differential pressure transducers. The 4 boxes were equipped with an air supply line (also used for aerosol delivery) and an exhaust air line. Supply and exhaust lines were of the same length and narrow bore and arose from a common supply chamber and vented to a common exhaust chamber. This system was used to ensure that fluctuations in supply air and atmospheric pressure would remain in phase and be eliminated from the net signal by the differential pressure transducers. The analog pressure signals were digitalized via a Data Translation DT2821 A to D board. Data were collected at a rate of 100 samples/second/animal. Each cycle of pressure change was analyzed using the following parameters: rising and falling slope determined between minimum and maximum pressures, the ratio of rising over falling slope, and the magnitude of the change between initial trough pressure and peak cycle pressure. Using these values (and observing the animals) the pressure cycles were characterized into normal breaths, forced exhalations (apparent by abdominal heaving), significant respiratory events (SREs; usually coughs, less often sneezes or gasps which were characterized by transient, extremely large pressure increases which were distinguishable from noise) and movement/noise with a PCAT 286 running a System V UNIX operating system. Dyspnea was defined as a significant, sustained increase in plethysmograph pressure which was associated with an observable shift to labored breathing in the animal.
(§4) During the course of a typical experiment in which airway responsiveness to various bronchoconstricting agents was examined, aerosols were delivered for 19 min (0.33 ml/min) using a DeVilbiss Ultraneb 99 ultrasonic nebulizer and animals monitored during this time. Prior to nebulization, 1 min of resting breathing was collected to establish a baseline pressure. […] The vehicle for nebulization of all bronchoconstrictive agents was phosphate buffered saline (pH 7.4) which elicited no respiratory effects itself. Putative tachykinin antagonists were administered either (i.v.) 20 min prior to onset of aerosol exposure or orally 1 hour prior to onset (to guinea pigs after an overnight fast).
Capsaicin aerosol is known to promote release of the tachykinins SP and NKA from sensory nerves in the airways of guinea pigs which may then act upon NK1 and NK2 receptors, respectively to elicit respiratory effects.

NK2 receptor [2] = biological target: T2, NK2 receptor (Bos taurus, UniProt P05363); experiment: Antagonism of NK2 receptor mediated (NKA-induced) phosphatidylinositol turnover in SKLKB82#3 cells; assay type: cell-based; conditions: SKLKB82#3 cells, NKA; Schild slope, mean (95% confidence limits)
T2 construct: expressed in transfected cells; host or cells: SKLKB82#3 cells
T2 sequence (P05363 1-384): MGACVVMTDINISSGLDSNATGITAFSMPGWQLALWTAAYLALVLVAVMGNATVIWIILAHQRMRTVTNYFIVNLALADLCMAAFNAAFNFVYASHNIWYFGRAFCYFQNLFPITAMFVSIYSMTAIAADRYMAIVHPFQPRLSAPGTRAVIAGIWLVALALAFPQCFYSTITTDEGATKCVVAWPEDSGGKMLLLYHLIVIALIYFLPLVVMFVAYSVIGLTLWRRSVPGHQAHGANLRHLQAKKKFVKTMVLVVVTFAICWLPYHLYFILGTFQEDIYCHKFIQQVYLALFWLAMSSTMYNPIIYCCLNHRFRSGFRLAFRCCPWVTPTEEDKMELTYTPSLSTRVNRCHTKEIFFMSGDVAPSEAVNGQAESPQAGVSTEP
Description: as §1
as §2, with “The ratios in the presence of test compound and/or standards were compared to the ratios for control samples (i.e. no stimulating agonist).” left out

NK1 receptor [3] = biological target: T3, NK1 receptor (Cavia porcellus, UniProt P30547); experiment: Antagonism of SP-induced plasma protein extravasation in guinea pig trachea; assay type: in vivo; conditions: guinea pig, iv; i.v. 2 min prior to SP; mean (95% confidence limits); at least 3 doses, at least 4 animals per dose; read-out: ED50 for inhibition of SP-induced plasma protein extravasation
T3 construct: evaluated in guinea pig lungs; tissue Keystone Biologicals, Cleveland, OH; host or cells: guinea pig lung
Description: SP-induced protein leakage through postcapillary venules was assessed by measuring Evans Blue dye accumulation in guinea pig trachea. Animals were anesthetized with pentobarbital then injected with Evans Blue dye (20 mg/kg, i.v., prepared in 0.9% NaCl solution). One minute after dye administration, the antagonist was administered (i.v.) followed by SP (0.3 nmole/kg, i.v.) and, after 5 min, excess dye removed from the circulation by transcardiac perfusion with 50 ml 0.9% NaCl solution. The trachea and primary bronchi were removed, blotted dry and weighed. Dye quantitation was performed spectrophotometrically ([…]) after extracting tissues in formamide for 24 hr at 50° C.. Values were subtracted from background (dye only, no agonist). ED50 (dose of compound which inhibits SP-induced plasma protein extravasation by 50%) was calculated from linear regression analysis.

NK2 receptor [4] = experiment: Antagonism of NKA-induced respiratory effects in conscious guinea pigs; assay type: in vivo, guinea pig; conditions: for dyspnea incidence: i.v. 20 min prior to NKA aerosol (0.05%)
Description: as §3, §4

T1 sequence (P25103 whole entry): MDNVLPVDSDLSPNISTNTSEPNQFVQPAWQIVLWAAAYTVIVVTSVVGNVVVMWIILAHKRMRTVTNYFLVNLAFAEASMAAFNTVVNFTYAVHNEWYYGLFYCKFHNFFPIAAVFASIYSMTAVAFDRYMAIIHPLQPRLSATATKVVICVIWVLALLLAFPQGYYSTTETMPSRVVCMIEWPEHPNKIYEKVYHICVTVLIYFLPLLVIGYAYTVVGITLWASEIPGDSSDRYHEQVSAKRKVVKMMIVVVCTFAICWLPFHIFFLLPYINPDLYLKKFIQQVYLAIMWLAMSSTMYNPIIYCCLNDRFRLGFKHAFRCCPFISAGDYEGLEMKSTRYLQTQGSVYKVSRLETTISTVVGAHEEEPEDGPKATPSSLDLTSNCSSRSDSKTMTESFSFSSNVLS
T3 sequence (P30547 whole entry): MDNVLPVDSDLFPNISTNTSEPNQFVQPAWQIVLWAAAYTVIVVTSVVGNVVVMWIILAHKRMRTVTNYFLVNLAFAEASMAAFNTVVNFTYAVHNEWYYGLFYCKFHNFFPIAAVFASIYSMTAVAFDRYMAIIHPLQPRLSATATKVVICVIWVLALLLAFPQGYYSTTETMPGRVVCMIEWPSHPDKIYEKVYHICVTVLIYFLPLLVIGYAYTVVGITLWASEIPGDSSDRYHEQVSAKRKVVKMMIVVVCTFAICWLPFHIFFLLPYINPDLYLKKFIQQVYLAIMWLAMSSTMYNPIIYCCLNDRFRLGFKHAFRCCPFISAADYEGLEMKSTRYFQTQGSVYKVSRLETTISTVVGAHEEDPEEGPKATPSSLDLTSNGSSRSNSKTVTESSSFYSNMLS

COc1cc(C(=O)N2CCC(CCN3CCC(C(N)=O)(c4ccccc4)CC3)(c3ccc(Cl)c(Cl)c3)C2)cc(OC)c1OC (racemic) [Example 3A, 1-[2-[3-(3,4-dichloro-phenyl)-1-(3,4,5-trimethoxy-benzoyl)-pyrrolidin-3-yl]-ethyl]-4-phenyl-piperidine-4-carboxylic acid amide hydrochloride]
relative antagonism of NK1 and NK2 receptors (in words) (NK1 receptor [1]): antagonized both NK1 and NK2 receptors by nearly equivalent amounts
NK-1 receptor slope (NK1 receptor [1]; UC11 cells, SP, Schild slope, mean (95% confidence limits)): 0.90
dyspnea incidence (NK1 and NK2 receptors; 10 mg/kg, i.v. 20 min prior to capsaicin aerosol (0.001%)): 89%
dyspnea incidence (NK1 and NK2 receptors; 25 mg/kg, oral gavage 1 hr prior to capsaicin aerosol (0.001%)): 80%
dyspnea incidence (NK1 and NK2 receptors; 50 mg/kg, oral gavage 1 hr prior to capsaicin aerosol (0.001%)): 70%
dyspnea incidence (NK1 and NK2 receptors; 100 mg/kg, oral gavage 1 hr prior to capsaicin aerosol (0.001%)): 50%
effect on capsaicin-induced respiratory effects (in words) (NK1 and NK2 receptors; intravenous): attenuate capsaicin-induced respiratory effects
effect on capsaicin-induced respiratory effects (in words) (NK1 and NK2 receptors; oral): antagonize the effects of capsaicin aerosol when administered orally
NK-2 receptor slope (NK2 receptor [2]): 0.73
ED50 (NK1 receptor [3]): 0.17 mg/kg

COc1cccc(OC)c1C(=O)N1CCC(CCN2CCC(C(N)=O)(c3ccccc3)CC2)(c2ccc(Cl)c(Cl)c2)C1 (stereo not drawn) [Example 5, 1-[2-[3-(3,4-dichloro-phenyl)-1-(2,6-dimethoxy-benzoyl)-pyrrolidin-3-yl]-ethyl]-4-phenyl-piperidine-4-carboxylic acid amide]
effect on capsaicin-induced respiratory effects (in words) (NK1 and NK2 receptors; oral): antagonize the effects of capsaicin aerosol when administered orally

COc1cccc(OC)c1C(=O)N1CCC(CCN2CCC(C(N)=O)(c3ccccc3)CC2)(c2ccc(Cl)c(Cl)c2)C1 (stereo not drawn) [Example 5A, 1-[2-[3-(3,4-dichloro-phenyl)-1-[2,6-dimethoxy-benzoyl)-pyrrolidin-3-yl]-ethyl]-4-phenylpiperidine-4-carboxylic acid amide hydrochloride]
relative antagonism of NK1 and NK2 receptors (in words) (NK1 receptor [1]): antagonized both NK1 and NK2 receptors by nearly equivalent amounts
dyspnea incidence (NK2 receptor [4]; 5 mg/kg): 60%
dyspnea incidence (NK2 receptor [4]; 10 mg/kg): 54%
effect on NKA-induced respiratory effects (in words) (NK2 receptor [4]; NKA aerosol, dose dependent): reduced the effects of NKA aerosol

— patent US5635510A, “Substituted pyrrolidin-3-yl-alkyl-piperidines” (Merrell Pharmaceuticals Inc., priority 1994, dated 1997)
